From patent US10456434B2, “Extracts obtained from cell line cultures from plants belonging to the Oleaceae family (e.g. Syringa vulgaris), their preparation and use” (CRODA ITALIANA S. P. A., priority 2005, dated 2019)

Columns and labels:
tyrosinase [1] = experiment: Tyrosinase inhibition, conversion of L-DOPA to DOPAquinone; format: biochemical, Mushroom; conditions: 100 μg/ml
From the text: (§1) The enzyme tyrosinase catalyses the reactions leading to melanin biosynthesis from tyrosine. […] Substances inhibiting tyrosinase activity produce clearing/bleaching effect on the skin, since they block melanin synthesis. The method used to determine the inhibition of tyrosinase activity in the oxidation reaction of L-tyrosine to L-DOPA is that described in Kim et al. […] Biol. Pharm. Bull. 28(2), 323-327, 2005). The method applied for determination of the inhibition of tyrosinase activity in the conversion of L-DOPA to DOPAquinone is that described in Masamoto et al. (Mushroom tyrosinase inhibitory activity of esculetin isolated from seeds of Euphorbia lathyris L. Biosci. Biotechnol. Biochem., 67(3), 631-634, 2003).

tyrosinase [2] = experiment: Tyrosinase inhibition, oxidation of L-tyrosine to L-DOPA; format: biochemical; conditions: 250 μg/ml
From the text: as §1

5 alpha reductase type I = target: T1, 5 alpha reductase type I (Homo sapiens, UniProt P18405); experiment: Type I 5 alpha reductase inhibition (14C testosterone conversion); format: biochemical; conditions: pH 7.0
T1 construct: made in house; host or cells: genetically modified yeast
T1 sequence (P18405 1-259): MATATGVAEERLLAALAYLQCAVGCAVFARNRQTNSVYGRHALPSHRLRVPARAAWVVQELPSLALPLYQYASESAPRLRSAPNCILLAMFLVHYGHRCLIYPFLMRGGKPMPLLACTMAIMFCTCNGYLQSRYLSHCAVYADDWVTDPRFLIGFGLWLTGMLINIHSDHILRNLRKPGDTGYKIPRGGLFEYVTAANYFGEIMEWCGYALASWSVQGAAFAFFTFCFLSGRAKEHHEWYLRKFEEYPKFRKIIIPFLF
Procedure: Determination of the 5 alpha reductase inhibitory activities by Syringa vulgaris extracts, verbascoside and isoverbascoside in comparison to Serenoa repens extracts. Said determination, has been performed using enzymes (5 alpha reductase, type I and type II) produced by genetically modified yeast. Enzyme activities have been determined in the presence of Syringa vulgaris and Serenoa repens extracts, verbascoside isoverbascoside.
Type I 5 alpha reductase activity has been assayed by incubating the enzyme in 0.1M Tris-citrate buffer (pH 7.0), containing 5 μM (^14C) radio-labelled testosterone (Amersham, Sweden) and 5 mM NADPH (Sigma) in a final volume of 5 ml. The solution thus obtained has been incubated for 1 hour at 37° C.
In both assays, the steroids have been extracted using 5 ml of methylene chloride. The extracts have then been dried under a stream of nitrogen and the dried residues obtained have, been dissolved in 20 μl of a chloroform-methanol mixture (2:1 v/v). […] For quantification of the results, the spots have been scraped from the TLC plate and extracted with 2 ml of ethyl acetate. The extracts obtained have been analysed, using scintillation fluid, with the aid of a Wallach […]. The enzyme activity has been calculated from the percentage conversion (C %) of the substrate into final product:
C %=[counted product/(counted substrate+product)]×100.

[3] = tested on: Malassezia furfur ST 8036; experiment: Multiple dilution antimycotic assay, Malassezia furfur; format: cell-based; conditions: assayed at 0.625-5 mg/ml
Procedure: With the aim of identifying any potential antifungal activity in the Syringa vulgaris extracts, microbiological assays have been prepared, generally known as multiple dilution assays. Such assays have been performed using the following fungal strains: Trycophyton rubrum ATCC 28188 and Malassezia furfur ST 8036. Syringa vulgaris Extracts 1 and 2, verbascoside and isoverbascoside have been assayed at concentrations of […], 1.25 mg/ml, 2.5 mg/ml and 5 mg/ml. The fungal strains used for testing have been inoculated into culture-broth (in Tryptone soy broth medium, for Malassezia furfur the culture medium has been supplemented with 2 ml/100 ml of olive oil) containing Syringa vulgaris extracts 1 and 2, verbascoside and isoverbascoside at the concentrations described above. In parallel with these tests, culture broths containing the microbial strain alone have been prepared (controls). The culture-broths have, been incubated at 30° C. for a period of 28 days. Samples of the various culture-broths have been taken at 0, 7, 14, 21 and 28 days, with the aim of counting the number of CFU/ml in relation to the various fungal strains, by plating the cultures on solid medium. A certain number of serial dilutions have been prepared for each sample in order to determine the fungal load of each culture-broth. Each dilution has been assayed in triplicate on solid medium. […]

platelets = experiment: ADP induced platelet aggregation in platelet rich plasma; format: cell-based, rabbit; conditions: 1.0 mg/ml
Procedure: Platelet enriched rabbit plasma has been used to assess the platelet anti-aggregating and disaggregating properties of Syringa vulgaris Extract 1, verbascoside and isoverbascoside. Platelet rich plasma has been obtained from rabbit venous blood by mixing it with a 3.8% sodium citrate solution (9:1 v/v). The solution has then been centrifuged at 460×g for 20 minutes. The supernatant has been collected and immediately used for the aggregation assays. Platelet aggregation has been recorded using a Chronolog “Ionised calcium platelet aggregometer” (Chrono-log Co., USA). All measurements have been performed at 37° C. with continuous stirring. […] Then 10 μl of a solution of ADP (final concentration—10 μm) has been added and the luminous transmittance continuously recorded. The results are expressed as the DÒ/DÒÊ ratio, where DÒÊ and DÒ are the luminous transmittance values, in the absence and presence of extract respectively. Platelet disaggregation (the disappearance of pre formed aggregates) has been determined using the same luminous transmittance curve 10 minutes following the addition of ADP. The results are expressed as the DR/DRk ratio, where DRk and DR, are the luminous transmittance in the absence and presence of extract. […]

[4] = Metal chelating activity (spectrophotometric), Fe3+; format: binding; conditions: chelation equilibrium constant, calculated for a pure phenylpropanoid
From the text: The chelating activities of Syringa vulgaris extracts, verbascoside and isoverbascoside in relation to Fe^2+, Fe^3+, Cu^2+ and Ni^2+ metal ions has been determined by means of spectrophotometric measurements using a Shimadzu 1770 UV spectrophotometer. The activities of chelating agents depends on the association constant (equilibrium) of their reactions with the metals according to the following reaction:
[formula] wherein Keq is the equilibrium constant equal to the ratio of concentrations at equilibrium of a complex and product of equilibrium concentrations of metal ions and a chelator:
[formula] The method used for determining chelating activity is well documented in the literature (Korkina L G, Afarras'er IB. Antioxidant and chelating properties of flavonoids. Adv. Pharmacol., 1997, 38:151-63). The results are expressed as Keg (M^−1) calculated for a pure phenylpropanoid. This way the chelating activity against ferrous (Fe II), ferric (Fe III), copper (Cu II) and nickel ions has been calculated.

| Test LDOPA-DOPAquinone inhibitory activity (%) (tyrosinase [1]) | Test L-tyrosine-DOPA inhibitory activity (%) (tyrosinase [2]) | IC50 (5 alpha reductase type I) | SMILES | antimycotic activity towards Malassezia furfur (in words) [3] | Aggregation (% with respect to control) (platelets) | Fe^3+ (Keq, M^−1) [4] |
| --- | --- | --- | --- | --- | --- | --- |
| 10% | 10.9% | 19.2 µM | CC1OC(OC2C(O)C(COC(=O)C=Cc3ccc(O)c(O)c3)OC(OCCc3ccc(O)c(O)c3)C2O)C(O)C(O)C1O [Isoverbascoside, b-(3,4-dihydroxyphenyl)-ethyl-O-α-L-ramnopyranosyl(1″-3′)-b-D-(6′-O-caffeoil)glucopyranoside] | activity comparable to Extract 1 | 25 ± 6 % | 130000 ± 40000 M⁻¹ |
| 20.6% | 19.6% | 20.8 µM | C[C@@H]1O[C@@H](O[C@@H]2[C@@H](O)[C@H](OCCc3ccc(O)c(O)c3)O[C@H](CO)[C@H]2OC(=O)/C=C/c2ccc(O)c(O)c2)[C@H](O)[C@H](O)[C@H]1O [Verbascoside, b-(3,4-dihydroxyphenyl)-ethyl-O-α-L-ramnopyranosyl (1″-3′)-b-D-(4′-O-caffeoil)-glucopyranoside] | activity comparable to Extract 1 | 24 ± 6 % | 120000 ± 50000 M⁻¹ |
